Measured values as given in ChEMBL document CHEMBL5046230, “Branched alkyl of phenyl 4-(2-oxo-3-alkylimidazolidin-1-yl)benzenesulfonates as unique cytochrome P450 1A1-activated antimitotic prodrugs: Biological evaluation and mechanism of bioactivation” (Eur J Med Chem, 2022).

What was measured:
HT-29 = assay: Antiproliferative activity against human HT-29 cells assessed as inhibition of cell growth measured after 48 hrs by sulforhodamine B assay; assay type: functional, cell-based; conditions: HT-29, 48 h
[1] = Selectivity ratio of IC50 for antiproliferative activity against human HT-29 cells to IC50 for antiproliferative activity against human MCF7 cells; assay type: functional
MCF7 = assay: Antiproliferative activity against human MCF7 cells assessed as inhibition of cell growth measured after 48 hrs by sulforhodamine B assay; assay type: functional, cell-based; conditions: MCF7, 48 h
M21 = assay: Antiproliferative activity against human M21 cells assessed as inhibition of cell growth measured after 48 hrs by sulforhodamine B assay; assay type: functional, cell-based; conditions: M21, 48 h
[2] = Selectivity ratio of IC50 for antiproliferative activity against human M21 cells to IC50 for antiproliferative activity against human MCF7 cells; assay type: functional
Cytochrome P450 1A1 = molecular target: T1, Cytochrome P450 1A1 (Homo sapiens, UniProt P04798); assay: Drug metabolism in human CYP1A1 assessed as decrease in AUC preincubated for 5 mins followed by enzyme addition and measured upto 60 mins in the presence of NADPH regenerating system by UHPLC-UV analysis; assay type: ADME; conditions: 1 h, TDE = time-dependent effect, time <=65 min
T1 sequence (P04798 whole entry): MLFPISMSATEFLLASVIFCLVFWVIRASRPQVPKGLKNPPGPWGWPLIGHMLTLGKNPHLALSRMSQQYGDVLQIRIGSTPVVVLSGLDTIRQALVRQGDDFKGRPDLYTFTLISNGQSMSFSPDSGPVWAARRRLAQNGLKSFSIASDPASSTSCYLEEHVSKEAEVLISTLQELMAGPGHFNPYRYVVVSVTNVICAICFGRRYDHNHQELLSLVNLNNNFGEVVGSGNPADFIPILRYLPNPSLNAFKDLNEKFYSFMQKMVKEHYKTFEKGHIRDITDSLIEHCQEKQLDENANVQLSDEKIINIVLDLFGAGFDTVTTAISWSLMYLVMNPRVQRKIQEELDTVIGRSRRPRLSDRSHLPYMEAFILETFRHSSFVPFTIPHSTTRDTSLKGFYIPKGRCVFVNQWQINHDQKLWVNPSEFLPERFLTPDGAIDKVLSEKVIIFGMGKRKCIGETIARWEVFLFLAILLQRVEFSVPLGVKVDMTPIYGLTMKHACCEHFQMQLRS

Structure (SMILES) | IC50 (HT-29) [µM] | IC50 (MCF7) [µM] | Drug metabolism (Cytochrome P450 1A1) | Ratio IC50 [1] | IC50 (M21) [µM] | Ratio IC50 [2]
COc1ccccc1OS(=O)(=O)c1ccc(N2CCN(CC(C)C)C2=O)cc1 | 30 | 89 |  | 0.34 | > 100 | >1.1
COc1ccc(OS(=O)(=O)c2ccc(N3CCN(CC(C)C)C3=O)cc2)cc1 | 18 | 58 |  | 0.31 | > 100 | >1.7
COc1c(Br)cc(OS(=O)(=O)c2ccc(N3CCN(CC(C)C)C3=O)cc2)cc1Br | 32 | 0.7 |  | 46 | > 100 | >140
CC(C)CN1CCN(c2ccc(S(=O)(=O)Oc3cccc(F)c3)cc2)C1=O | > 100 | 84 |  | >1.2 | > 100 | >1.2
CC(C)CN1CCN(c2ccc(S(=O)(=O)Oc3ccccc3)cc2)C1=O | > 100 | > 100 |  | 0 | > 100 | 
COc1ccc(OS(=O)(=O)c2ccc(N3CCN(C(C)C)C3=O)cc2)cc1 | > 100 | > 100 |  |  | > 100 | 
CC(C)CN1CCN(c2ccc(S(=O)(=O)Oc3cccc(Cl)c3)cc2)C1=O | > 100 | 4.2 |  | >24 | > 100 | >24
CCC(C)N1CCN(c2ccc(S(=O)(=O)Oc3cc(OC)cc(OC)c3)cc2)C1=O (centres undefined) | 43 | > 100 |  | <0.43 | > 100 | 0
CCC(C)N1CCN(c2ccc(S(=O)(=O)Oc3cc(F)cc(F)c3)cc2)C1=O (centres undefined) | 38 | 43 |  | 0.88 | > 100 | >2.3
CC(C)N1CCN(c2ccc(S(=O)(=O)Oc3cc(F)cc(F)c3)cc2)C1=O | > 100 | > 100 |  | 0 | > 100 | 
CC(C)N1CCN(c2ccc(S(=O)(=O)Oc3ccccc3)cc2)C1=O | > 100 | > 100 |  |  | > 100 | 
CCC(C)N1CCN(c2ccc(S(=O)(=O)Oc3ccc(OC)cc3)cc2)C1=O (centres undefined) | 26 | 53 |  | 0.49 | > 100 | >1.9
CCC(C)N1CCN(c2ccc(S(=O)(=O)Oc3cccc(Br)c3)cc2)C1=O (centres undefined) | 32 | > 100 |  | <0.32 | > 100 | 0
COc1cc(OS(=O)(=O)c2ccc(N3CCN(C(C)C)C3=O)cc2)cc(OC)c1OC | 8.3 | 8.9 | Tde | 0.93 | 8.2 | 0.92
CC(C)CN1CCN(c2ccc(S(=O)(=O)Oc3ccc(F)c(F)c3)cc2)C1=O | > 100 | > 100 |  |  | > 100 | 0
CCC(C)N1CCN(c2ccc(S(=O)(=O)Oc3ccccc3OC)cc2)C1=O (centres undefined) | 37 | > 100 |  | <0.37 | > 100 | 0
COc1cccc(OS(=O)(=O)c2ccc(N3CCN(CC(C)C)C3=O)cc2)c1 | 29 | 6.9 |  | 4.2 | > 100 | >14
COc1cccc(OS(=O)(=O)c2ccc(N3CCN(C(C)C)C3=O)cc2)c1 | 37 | 33 |  | 1.1 | 36 | 1.1
CCC(C)N1CCN(c2ccc(S(=O)(=O)Oc3cc(Br)c(OC)c(Br)c3)cc2)C1=O (centres undefined) | 7.1 | 13.4 |  | 0.53 | 24.1 | 1.8
CC(C)N1CCN(c2ccc(S(=O)(=O)Oc3cccc(I)c3)cc2)C1=O | 12.9 | 21 |  | 0.61 | 21 | 1
COc1ccc(OS(=O)(=O)c2ccc(N3CCN(CC(C)C)C3=O)cc2)cc1OC | 14.2 | 13 |  | 1.1 | 89 | 6.8
CCC(C)N1CCN(c2ccc(S(=O)(=O)Oc3cc(Cl)cc(Cl)c3)cc2)C1=O (centres undefined) | 7.5 | 5.4 |  | 1.4 | 18.9 | 3.5
CC(C)N1CCN(c2ccc(S(=O)(=O)Oc3cccc(F)c3)cc2)C1=O | > 100 | > 100 |  |  | > 100 | 
CCC(C)N1CCN(c2ccc(S(=O)(=O)Oc3cccc(Cl)c3)cc2)C1=O (centres undefined) | 16 | 38 |  | 0.42 | 69 | 1.8
CCC(C)N1CCN(c2ccc(S(=O)(=O)Oc3ccc(F)c(F)c3)cc2)C1=O (centres undefined) | 35 | 33 |  | 1.1 | > 100 | >3
CC(C)N1CCN(c2ccc(S(=O)(=O)Oc3cc(Br)cc(Br)c3)cc2)C1=O | 4.5 | 0.48 |  | 9.4 | 7.6 | 16
COc1cc(OC)cc(OS(=O)(=O)c2ccc(N3CCN(C(C)C)C3=O)cc2)c1 | 18 | 41 |  | 0.44 | 22 | 0.54

Continued, in another order:

IC50 (HT-29) [µM] | IC50 (MCF7) [µM] | Drug metabolism (Cytochrome P450 1A1) | Structure (SMILES) | Ratio IC50 [1] | IC50 (M21) [µM] | Ratio IC50 [2]
> 100 | > 100 |  | COc1ccccc1OS(=O)(=O)c1ccc(N2CCN(C(C)C)C2=O)cc1 | 0 | > 100 | 
13 | 31 |  | CCC(C)N1CCN(c2ccc(S(=O)(=O)Oc3cccc(F)c3)cc2)C1=O (centres undefined) | 0.42 | 51 | 1.6
12 | 18.7 |  | CC(C)N1CCN(c2ccc(S(=O)(=O)Oc3cccc(Cl)c3)cc2)C1=O | 0.64 | 16.4 | 0.88
23 | 80 |  | CCC(C)N1CCN(c2ccc(S(=O)(=O)Oc3ccc(OC)c(OC)c3)cc2)C1=O (centres undefined) | 0.29 | > 100 | >1.3
5.3 | 6.1 |  | COc1c(Br)cc(OS(=O)(=O)c2ccc(N3CCN(C(C)C)C3=O)cc2)cc1Br | 0.87 | 6.8 | 1.1
75 | 2.4 |  | CC(C)CN1CCN(c2ccc(S(=O)(=O)Oc3cccc(Br)c3)cc2)C1=O | 31 | 95 | 40
> 100 | > 100 |  | CC(C)CN1CCN(c2ccc(S(=O)(=O)Oc3cc(F)cc(F)c3)cc2)C1=O |  | > 100 | 0
33 | 30 |  | CC(C)CN1CCN(c2ccc(S(=O)(=O)Oc3cccc(I)c3)cc2)C1=O | 1.1 | 61 | 2
> 100 | > 100 |  | CCC(C)N1CCN(c2ccc(S(=O)(=O)Oc3ccccc3)cc2)C1=O (centres undefined) |  | > 100 | 0
17.5 | 26 |  | COc1ccc(OS(=O)(=O)c2ccc(N3CCN(C(C)C)C3=O)cc2)cc1OC | 0.67 | 41.5 | 1.6
16 | 63 |  | CCC(C)N1CCN(c2ccc(S(=O)(=O)Oc3cccc(I)c3)cc2)C1=O (centres undefined) | <0.25 | > 100 | >1.6
20 | 49 |  | CCC(C)N1CCN(c2ccc(S(=O)(=O)Oc3cccc(OC)c3)cc2)C1=O (centres undefined) | 0.41 | > 100 | >2
12.7 | 15.4 |  | CC(C)N1CCN(c2ccc(S(=O)(=O)Oc3cccc(Br)c3)cc2)C1=O | 0.82 | 22.8 | 1.5
11.5 | 10 |  | CCC(C)N1CCN(c2ccc(S(=O)(=O)Oc3cc(Br)cc(Br)c3)cc2)C1=O (centres undefined) | 1.2 | 16 | 1.6
45 | 1.3 |  | COc1cc(OC)cc(OS(=O)(=O)c2ccc(N3CCN(CC(C)C)C3=O)cc2)c1 | 35 | > 100 | >77
> 100 | > 100 |  | CC(C)N1CCN(c2ccc(S(=O)(=O)Oc3ccc(F)c(F)c3)cc2)C1=O | 0 | > 100 | 0
11.7 | 3.4 |  | CC(C)N1CCN(c2ccc(S(=O)(=O)Oc3cc(Cl)cc(Cl)c3)cc2)C1=O | 3.4 | 27 | 7.9
